In patent US20130165446A1 (priority 2010, published 2013):

Target: T1, human recombinant (CHO cell) AT1 receptor (Homo sapiens, UniProt P30556)
T1 construct: expressed in transfected cells; host or cells: CHO cells
T1 sequence (P30556 1-359): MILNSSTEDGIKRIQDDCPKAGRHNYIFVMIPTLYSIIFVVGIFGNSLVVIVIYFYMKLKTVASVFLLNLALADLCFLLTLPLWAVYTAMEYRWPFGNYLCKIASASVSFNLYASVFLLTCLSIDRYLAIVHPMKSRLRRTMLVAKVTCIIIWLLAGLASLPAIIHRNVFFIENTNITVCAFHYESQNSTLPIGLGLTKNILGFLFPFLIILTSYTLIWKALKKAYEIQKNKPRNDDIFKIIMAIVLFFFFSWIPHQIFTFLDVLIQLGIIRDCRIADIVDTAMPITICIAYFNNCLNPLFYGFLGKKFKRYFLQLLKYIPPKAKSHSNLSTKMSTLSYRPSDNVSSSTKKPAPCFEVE
Test: Angiotensin II inhibition test (radioligand binding to AT1 receptor)
Conditions: test compound concentration 10^−9 M, radioactive iodine-labeled angiotensin II, 37° C., sixty minutes; for inhibition at 0.001 µM: read-out: Inhibition rate (%)
Procedure: A test of inhibition of angiotensin II to human recombinant (CHO cell) AT1 receptor following a method described in the literature (for example, Regul. Pept., vol. 44 (2), page 131 (1993)) was used to measure inhibitory activity to a test compound.
The ligand used was 10^−9 M of a test compound dissolved in 1% DMSO (dimethylsulfoxide). This was reacted with radioactive iodine-labeled angiotensin II at 37° C. for sixty minutes. Taking the inhibition rate of angiotensin II at 10 μM as nonspecific binding, the specific binding rate was calculated by subtracting this nonspecific portion. Table 6 indicates the results (the inhibition rate at test compound concentration: 10^−9 M)

inhibition at 0.001 µM [%] | Structure (SMILES) | Inhibition rate (%)
22 | CCCCc1nc(Cl)c(C[S+]([O-])c2ccc3nc(COc4ccc(CC5SC(=O)NC5=O)cc4)n(C)c3c2)n1Cc1ccc(-c2ccccc2-c2nnn[nH]2)cc1 (stereo not drawn) [Example 23, 5-(4-{6-[2-butyl-4-chloro-1-[2′-(1H-tetrazol-5-yl)biphenyl-4-ylmethyl]-1H-imidazol-5-ylmethylsulfinyl]-1-methyl-1H-benzimidazol-2-ylmethoxy}benzyl)thiazolidine-2,4-dione] | 
32 | CCCc1nc(C[S+]([O-])c2ccc(Oc3ccc4nc(COc5ccc(CC6SC(=O)NC6=O)cc5)n(C)c4c3)cc2)c(C(=O)OCC)n1Cc1ccc(-c2ccccc2-c2nnn[nH]2)cc1 (stereo not drawn) [Example 25, 4-[4-{2-[4-(2,4-dioxothiazolidin-5-ylmethyl)phenoxymethyl]-1-methyl-1H-benzimidazol-6-yloxy}phenylsulfinylmethyl]-2-propyl-1-[2′-(1H-tetrazol-5-yl)biphenyl-4-ylmethyl]-1H-imidazole-5-carboxylic acid ethyl ester] | 
44 | CCCc1nc(CS(=O)(=O)c2ccc(Oc3ccc4nc(COc5ccc(CC6SC(=O)NC6=O)cc5)n(C)c4c3)cc2)c(C(=O)OCC)n1Cc1ccc(-c2ccccc2-c2nnn[nH]2)cc1 (stereo not drawn) [Example 26, 4-[4-{2-[4-(2,4-dioxothiazolidin-5-ylmethyl)phenoxymethyl]-1-methyl-1H-benzimidazol-6-yloxy}phenylsulfonylmethyl]-2-propyl-1-[2′-(1H-tetrazol-5-yl)biphenyl-4-ylmethyl]-1H-imidazole-5-carboxylic acid ethyl ester] | 
66 | CCCc1nc2c(C)cc(C(=O)NCc3ccc(Oc4ccc5nc(COc6ccc(CC7SC(=O)NC7=O)cc6)n(C)c5c4)cc3)cc2n1Cc1ccc(-c2ccccc2-c2nnn[nH]2)cc1 (stereo not drawn) [Example 28, 5-[4-[6-{4-(4-methyl-2-propyl-1-[2′-(1H-tetrazol-5-yl)biphenyl-4-ylmethyl]-1H-benzimidazol-6-ylcarbonylaminomethyl)phenoxy}-1-methyl-1H-benzimidazol-2-ylmethoxy]benzyl]thiazolidin-2,4-dione] | 
66 | CCCc1nc(CSc2ccc(Oc3ccc4nc(COc5ccc(CC6SC(=O)NC6=O)cc5)n(C)c4c3)cc2)c(C(=O)OC)n1Cc1ccc(-c2ccccc2-c2nnn[nH]2)cc1 (stereo not drawn) [Example 30, 4-[4-{2-[4-(2,4-dioxothiazolidin-5-ylmethyl)phenoxymethyl]-1-methyl-1H-benzimidazol-6-yloxy}phenylthiomethyl]-2-propyl-1-[2′-(1H-tetrazol-5-yl)biphenyl-4-ylmethyl]-1H-imidazole-5-carboxylic acid methyl ester] | 
22 | CCCc1nc(CNc2ccc(Oc3ccc4nc(COc5ccc(CC6SC(=O)NC6=O)cc5)n(C)c4c3)cc2)c(C(=O)OCC)n1Cc1ccc(-c2ccccc2-c2nnn[nH]2)cc1 (stereo not drawn) [Example 31, 4-{N-[4-[2-(4-[2,4-dioxothiazolidin-5-ylmethyl]phenoxymethyl)-1-methyl-1H-benzimidazol-6-yloxy]phenyl]aminomethyl}-2-propyl-1-[2′-(1H-tetrazol-5-yl)biphenyl-4-ylmethyl]-1H-imidazole-5-carboxylic acid ethyl ester] | 
87 | CCCc1nc(CSc2ccc3nc(COc4ccc(CC5SC(=O)NC5=O)cc4)n(C)c3c2)c(C(=O)OCC)n1Cc1ccc(-c2ccccc2-c2nnn[nH]2)cc1 (stereo not drawn) [Example 33, 4-{2-[4-(2,4-dioxothiazolidin-5-ylmethyl)phenoxymethyl]-1-methyl-1H-benzimidazol-6-ylthiomethyl}-2-propyl-1-[2′-(1H-tetrazol-5-yl)biphenyl-4-ylmethyl]-1H-imidazole-5-carboxylic acid ethyl ester] | 
90 | CCCc1nc(CSc2ccc3nc(COc4ccc(CC(OCc5ccc(Cl)cc5)C(=O)O)cc4)n(C)c3c2)c(C(=O)OCC)n1Cc1ccc(-c2ccccc2-c2nnn[nH]2)cc1 (stereo not drawn) [Example 35, 3-[4-[6-(5-ethoxycarbonyl-1-{2′-(1H-tetrazol-5-yl)biphenyl-4-ylmethyl}-2-propyl-1H-imidazol-4-ylmethylthio)-1-methyl-1H-benzimidazol-2-ylmethoxy]phenyl]-2-(4-chlorobenzyloxy)propionic acid] | 

More lines, now with the values behind:

Structure (SMILES) | inhibition at 0.001 µM [%] | Inhibition rate (%)
CCCc1nc2c(C)cc(COc3ccc4nc(COc5ccc(CC6SC(=O)NC6=O)cc5)n(C)c4c3)cc2n1Cc1ccc(-c2ccccc2-c2nnn[nH]2)cc1 (stereo not drawn) [Example 1, 5-(4-{6-[4-methyl-2-propyl-1-[2′-(1H-tetrazol-5-yl)biphenyl-4-ylmethyl]-1H-benzimidazol-6-ylmethoxy]-1-methyl-1H-benzimidazol-2-ylmethoxy}benzyl)thiazolidine-2,4-dione] | 51 | 
CCCc1nc2c(C)cc(-c3nc4ccc(N(C)CCOc5ccc6nc(COc7ccc(CC8SC(=O)NC8=O)cc7)n(C)c6c5)cc4n3C)cc2n1Cc1ccc(-c2ccccc2-c2nnn[nH]2)cc1 (stereo not drawn) [Example 3, 5-[4-[6-{2-(N-(1-methyl-2-[4-methyl-2-propyl-1-(2′-(1H-tetrazol-5-yl)biphenyl-4-ylmethyl)-1H-benzimidazol-6-yl]-1H-benzamidazol-6-yl)-N-methylamino)ethoxy}-1-methyl-1H-benzimidazol-2-ylmethoxy]benzyl]thiazolidine-2,4-dione] |  | 60
CCCc1nc(COc2ccc3nc(COc4ccc(CC5SC(=O)NC5=O)cc4)n(C)c3c2)c(C(=O)OCC)n1Cc1ccc(-c2ccccc2-c2nnn[nH]2)cc1 (stereo not drawn) [Example 7, 4-{2-[4-(2,4-dioxothiazolidin-5-ylmethyl)phenoxymethyl]-1-methyl-1H-benzimidazol-6-yloxymethyl}-2-propyl-1-[2′-(1H-tetrazol-5-yl)biphenyl-4-ylmethyl]-1H-imidazole-5-carboxylic acid ethyl ester] | 52 | 
CCCc1nc2c(C)cc(CN(C)c3ccc4nc(COc5ccc(CC6SC(=O)NC6=O)cc5)n(C)c4n3)cc2n1Cc1ccc(-c2ccccc2C(=O)O)cc1 (stereo not drawn) [Example 10, 4′-[6-(N-{2-[4-(2,4-dioxothiazolidin-5-ylmethyl)phenoxymethyl]-3-methyl-3H-imidazo[4,5-b]pyridin-5-yl}-N-methylaminomethyl)-4-methyl-2-propyl-1H-benzimidazol-1-ylmethyl]biphenyl-2-carboxylic acid] | 41 | 
CCCc1nc(CSCCSc2ccc(Oc3ccc4nc(COc5ccc(CC6SC(=O)NC6=O)cc5)n(C)c4c3)cc2)c(C(=O)OCC)n1Cc1ccc(-c2ccccc2-c2nnn[nH]2)cc1 (stereo not drawn) [Example 14, 4-[2-[4-{1-methyl-2-(4-(2,4-dioxothiazolidin-5-ylmethyl)phenoxymethyl)-1H-benzimidazol-6-yloxy}phenylthio]ethylthiomethyl]-2-propyl-1-[2′-(1H-tetrazol-5-yl)biphenyl-4-ylmethyl]-1H-imidazole-5-carboxylic acid ethyl ester] | 38 | 
CCCc1nc(CSCCOc2ccc3nc(COc4ccc(CC5SC(=O)NC5=O)cc4)n(C)c3c2)c(C(=O)OCC)n1Cc1ccc(-c2ccccc2-c2nnn[nH]2)cc1 (stereo not drawn) [Example 15, 4-[2-[1-methyl-2-{4-(2,4-dioxothiazolidin-5-ylmethyl)phenoxymethyl}-1H-benzimidazol-6-yloxy]ethylthiomethyl]-2-propyl-1-[2′-(1H-tetrazol-5-yl)biphenyl-4-ylmethyl]-1H-imidazole-5-carboxylic acid ethyl ester] | 47 | 
CCCc1nc(CSCCNC(=O)CSc2ccc3nc(COc4ccc(CC5SC(=O)NC5=O)cc4)n(C)c3c2)c(C(=O)OCC)n1Cc1ccc(-c2ccccc2-c2nnn[nH]2)cc1 (stereo not drawn) [Example 19] |  | 65
CCCc1nc2c(C)cc(-c3nc4ccc(N(C)CCOc5ccc(CC6SC(=O)NC6=O)cc5)cc4n3C)cc2n1Cc1ccc(-c2ccccc2C(=O)O)cc1 (stereo not drawn) [Example 22, 4′-[6-{6-(N-2-[4-(2,4-dioxothiazolidin-5-ylmethyl)phenoxy]ethyl-N-methylamino)-1-methyl-1H-benzimidazol-2-yl}-4-methyl-2-propyl-1H-benzimidazol-1-ylmethyl]biphenyl-2-carboxylic acid] | 60 | 
CCCc1nc(CSc2ccc(Oc3ccc4nc(COc5ccc(CC6SC(=O)NC6=O)cc5)n(C)c4c3)cc2)c(C(=O)NC)n1Cc1ccc(-c2ccccc2-c2nnn[nH]2)cc1 (stereo not drawn) [Example 27, N-methyl-(4-[4-{2-[4-(2,4-dioxothiazolidyn-5-ylmethyl)phenoxymethyl]-1-methyl-1H-benzimidazol-6-yloxy}phenylthiomethyl]-2-propyl-1-[2′-(1H-tetrazol-5-yl)biphenyl-4-ylmethyl]-1H-imidazole)-5-carboxamide] |  | 66
CCCc1nc(COc2ccc(Sc3ccc4nc(COc5ccc(CC6SC(=O)NC6=O)cc5)n(C)c4c3)cc2)c(C(=O)OCC)n1Cc1ccc(-c2ccccc2-c2nnn[nH]2)cc1 (stereo not drawn) [Example 29, 4-[4-{2-[4-(2,4-dixothiazolidin-5-ylmethyl)phenoxymethyl]-1-methyl-1H-benzimidazol-6-ylthio}phenoxymethyl]-2-propyl-1-[2′-(1H-tetrazol-5-yl)biphenyl-4-ylmethyl]-1H-imidazole-5-carboxylic acid ethyl ester] |  | 40
